Assay results taken from patent publication US20080214551A1, “Treatment of Burns” (AQ+ PLC, priority 2004, published 2008).

Oc1cccc2cccnc12 [8-hydroxyquinoline]
solubility in aqueous solution: generally insoluble or only poorly soluble
